Test results taken from patent US12643935B2, “PD-L1 binding peptides” (UNIVERSITY OF SOUTHERN CALIFORNIA, priority 2020, dated 2026).
“Also recorded” adds a separate entry of the source.

Key:
hPD-L1 [1] = molecular target: T1, hPD-L1 (Homo sapiens, UniProt Q9NZQ7); experiment: hPD-L1 binding of [35S]-SPAM after incubation in 25% human serum; type: in vitro ADME; design: designed from A18 to T239 with a methionine added to the N-terminus; hexahistidine tag (C); made in house; settings: 37° C.
Procedure: We performed two complementary assays to determine what effect serum has on the SPAM/hPD-L1 interaction.
In a complementary test, SPAM was in vitro translated and [^35S]-labeled as described above. After purification as above, the [^35S]-labeled peptide-RNA fusions were incubated with DMEM media supplemented with 25% (v/v) single donor human plasma at 37° C. in triplicate for 0, 60, 120, 240 and 480 min. The binding of serum incubated peptides was then evaluated on hPD-L1 immobilized beads using 75 pmol hPD-L1 immobilized on streptavidin agarose beads (Thermo Fisher scientific) in DMEM supplemented with 25% Serum buffer and 0.02 mM biotin at 4° C. for 1 h. The supernatant was removed and was counted. The beads were subsequently washed three times with 1 mL of blocking buffer and the washes were also counted. Finally, the beads were resuspended in 1 mL of blocking buffer and were counted separately. The ratio of the counts remaining on the beads to the total counts added to the binding reaction (the sum of the counts for supernatant, washes, and beads) was calculated to determine the percent bound.
Target sequence in this assay (Q9NZQ7 with tags, fused parts or gaps): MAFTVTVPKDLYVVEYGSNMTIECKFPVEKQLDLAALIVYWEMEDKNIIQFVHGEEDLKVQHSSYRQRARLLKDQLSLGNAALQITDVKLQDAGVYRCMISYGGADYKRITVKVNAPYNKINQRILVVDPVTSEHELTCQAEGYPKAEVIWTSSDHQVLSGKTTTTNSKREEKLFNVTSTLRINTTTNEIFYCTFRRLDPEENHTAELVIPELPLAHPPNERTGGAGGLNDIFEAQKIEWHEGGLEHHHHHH

[2] = molecular target: T2, hPD-L1 expressed on the surface of Chinese hamster ovary (CHO) cells (CHO-hPD-L1) (Homo sapiens, UniProt Q9NZQ7); experiment: Antibody competition by flow cytometry on CHO-hPD-L1 cells; type: cell-based
T2 construct: expressed in transfected cells; host or cells: CHO
From the text: To do this, we measured SPAM peptide inhibition of anti-PD-L1 antibody binding to hPD-L1 expressed on the surface of Chinese hamster ovary (CHO) cells (CHO-hPD-L1). […] Cells were washed again and analyzed by flow cytometry (FIG. 5B-C).
Cells were then washed three times with cold serum free DMEM. Cells were subsequently processed by flow cytometry with a BD FACSCalibur system using the FL1 channel. FlowJo v10.1 was used to gate to the major population and median FL1 fluorescence reported.

[3] = Serum stability of ROX-SPAM by HPLC; type: in vitro ADME; settings: 25% human serum, 37° C., up to five hours
Procedure: We first tested SPAM peptide stability by performing an HPLC-based assay to test if SPAM is degraded by human serum. We incubated ROX-labeled SPAM with 25% human serum at 37° C., took aliquots at different time points, then analyzed the products using HPLC.
At times 0, 15, 30, 120 and 300 min, 40 μL was removed and protein precipitated by the addition of 80 μL ethanol. Samples were centrifuged for 10 min at 16,000×g and the supernatant removed for HPLC analysis. A total of 100 μL volume was injected in a HPLC gradient of 10^−95% Buffer B over 15 minutes (Buffer A: dH2O with 0.1% (v/v) TFA, Buffer B: CH3CN+0.1% (v/v) TFA). Detection was performed at 570 nm.

hPD-L1 [4] = molecular target: T1, hPD-L1; experiment: Fluorescence polarization of ROX-labeled SPAM with glycosylated hPD-L1*; type: binding; design: The hPD-L1* vector included amino acids A18-T239, an Avi Tag and a hexahistidine tag; hexahistidine tag; made in house; host or cells: Expi293F; settings: T=22° C., 100 nM ROX-SPAM, read-out: dissociation constant (KD) for hPD-L1*
Procedure: To evaluate the affinity of SPAM for hPD-L1 and hPD-L1*, we measured the KD by fluorescence polarization. […] The resulting values were plotted against the concentration of hPD-L1 or hPD-L1* and fit to a one-site saturation binding model with GraphPad Prism.
A stock solution of hPD-L1 or hPD-L1* with a 5 μM starting concentration was prepared and serially diluted to concentrations ranging from 5 μM to 2.4 nM. […] The fluorescence polarization of each sample was measured on a Synergy H4 Hybrid Multi-Mode Microplate Reader. Each measurement was carried out in triplicate and the mean value was calculated. The values were fit to a one-site saturation binding model in GraphPad Prism to obtain the corresponding equilibrium dissociation constants.
Target sequence in this assay (Q9NZQ7 18-239): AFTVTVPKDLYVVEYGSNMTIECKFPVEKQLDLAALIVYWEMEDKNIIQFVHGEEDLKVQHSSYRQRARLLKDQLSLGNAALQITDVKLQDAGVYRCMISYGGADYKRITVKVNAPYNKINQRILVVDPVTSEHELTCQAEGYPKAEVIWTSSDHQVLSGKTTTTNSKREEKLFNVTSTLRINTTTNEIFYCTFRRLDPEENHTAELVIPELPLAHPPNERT

hPD-L1/mPD-1 interaction = molecular target: T3, hPD-L1/mPD-1 interaction (Homo sapiens, UniProt Q9NZQ7); experiment: ELISA/IP assay of hPD-L1/mPD-1 interaction; type: biochemical; settings: 10 μM SPAM
T3 construct: designed from A18 to T239 with a methionine added to the N-terminus; hexahistidine tag (C); made in house; host or cells: E. coli BL21 (DE3)
Procedure: An ELISA-based activity assay was employed to measure the potency of SPAM peptide inhibition of the hPD-L1/PD-1 interaction (FIG. 4C-D). In this assay, biotinylated hPD-L1 was immobilized on streptavidin magnetic beads and incubated with various concentrations of SPAM peptide, followed by incubation with HA-tagged mPD-1 and detection with anti-HA secondary antibody.
For ELISA/IP assays, 20 L of MyOne™ Streptavidin T1 magnetic beads Dynabeads™ (Thermo Fisher Scientific) were loaded with 100 nM biotinylated hPD-L1 in assay buffer (20 mM HEPES-KOH pH 7.5, 150 mM NaCl, 0.2% (v/v) Tween-20, 1 mg/mL BSA and 50 μg/mL tRNA) at 4° C. The beads were subsequently washed and incubated with either DMSO or different concentrations of SPAM peptide (0.1, 1 or 10 μM) in the assay buffer for 1 h at 4° C. followed by adding HA-tagged mPD-1 (100 nM) for 1 h at 4° C. The samples were then washed and incubated with a 1:5,000 dilution of HRP conjugated anti-HA antibody (Pierce HA Antibody, Rockford. Il, USA) for 1 h at 4° C. The beads were washed again and developed with TMB Substrate Kit (Thermo Scientific) for 30 minutes and the reactions stopped by adding 100 L of […] sulfuric acid. The absorbance at 450 nm was measured on a Biotek Synergy H1 Hybrid Multi-Mode Microplate Reader.

T3 sequence (Q9NZQ7 with tags, fused parts or gaps): as the sequence (Q9NZQ7 with tags, fused parts or gaps) above
T2 sequence (Q9NZQ7 19-290): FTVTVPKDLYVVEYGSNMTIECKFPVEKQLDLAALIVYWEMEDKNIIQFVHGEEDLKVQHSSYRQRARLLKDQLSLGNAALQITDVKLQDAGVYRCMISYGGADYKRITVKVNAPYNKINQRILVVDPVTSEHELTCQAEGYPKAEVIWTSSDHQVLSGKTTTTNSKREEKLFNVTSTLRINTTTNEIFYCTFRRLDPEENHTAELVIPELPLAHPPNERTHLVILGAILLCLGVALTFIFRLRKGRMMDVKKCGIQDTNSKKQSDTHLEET

Structure (SMILES): C#CC[C@H](NC(=O)CNC(=O)[C@H](CO)NC(=O)[C@H](C)NC(=O)[C@H](Cc1ccc(O)cc1)NC(=O)[C@H](Cc1c[nH]cn1)NC(=O)[C@H](CC(C)C)NC(=O)[C@@H](NC(=O)[C@H](Cc1c[nH]c2ccccc12)NC(=O)[C@H](Cc1ccccc1)NC(=O)[C@H](CCCCN)NC(=O)[C@H](CC(N)=O)NC(=O)[C@H](CC(C)C)NC(=O)[C@@H](NC(=O)[C@H](Cc1c[nH]cn1)NC(=O)[C@H](CC(=O)O)NC(=O)[C@H](CC(C)C)NC(=O)[C@H](Cc1ccccc1)NC(=O)[C@@H](NC(=O)[C@@H]1CCCN1C(=O)[C@@H](N)CCSC)[C@@H](C)CC)[C@@H](C)CC)[C@@H](C)CC)C(N)=O (stereo in doubt) [SPAM]
- loss of binding in presence of human serum (hPD-L1 [1]): ~25%
- binding to immobilized hPD-L1 after serum incubation (hPD-L1 [1]; eight hours): no further decrease
- binding to immobilized hPD-L1 after serum incubation (hPD-L1 [1]; four hours): slight decrease
- binding to immobilized hPD-L1 after serum incubation (hPD-L1 [1]; two hours): No decrease
- Fluorescein-Atezolizumab and Fluorescein-Avelumab binding to CHO-hPD-L1 after pre-incubation ([2]; pre-incubation 30 min 4° C., 0-20 μM, SPAM effect at 20 μM, 1 nM Atezolizumab, 10 nM Avelumab): significant decrease
- blocking of Fluorescein-16373 and Fluorescein-16377 in CHO-hPD-L1 cells ([2]; pre-treatment 0-20 μM, 50 nM antibody): blocking
- degradation in human serum (HPLC) [3]: stable
- Kd (hPD-L1 [4]): 67 nM
- inhibition of mPD-1 binding to hPD-L1 (hPD-L1/mPD-1 interaction): almost completely disrupted; also recorded: almost completely inhibits
